Consider 3 compounds from PubChem BioAssay AID1259407 (Chemical Carcinogenesis Research Information System (CCRIS), 2018).

Molecules are shown by their SMILES. The source made the active and inactive calls. How the calls were made is not given here.

For the data set, the system named is CCRIS mutagenicity, Ames/micronucleus/aberration tests. As to the kind of experiment: CCRIS mutagenicity studies.
Setting [1] is: Test System: AMES SALMONELLA TYPHIMURIUM, Strain/Indicator: TA98, Metabolic Activation: NONE, Method: STANDARD PLATE.
[2] abbreviates: Test System: AMES SALMONELLA TYPHIMURIUM, Strain/Indicator: TA98, Metabolic Activation: RAT, LIVER, S-9, AROCLOR 1254, Method: STANDARD PLATE.
[3] abbreviates: Test System: AMES SALMONELLA TYPHIMURIUM, Strain/Indicator: TA100, Metabolic Activation: NONE, Method: STANDARD PLATE.
Setting [4] is: Test System: AMES SALMONELLA TYPHIMURIUM, Strain/Indicator: TA100, Metabolic Activation: RAT, LIVER, S-9, AROCLOR 1254, Method: STANDARD PLATE.

As for `NCc1cccc(CN)c1`, the mutagenic call is “inactive; negative” (Test System: AMES SALMONELLA TYPHIMURIUM, Strain/Indicator: TA98, Metabolic Activation: HAMSTER, LIVER, S-9, AROCLOR 1254, Method: STANDARD PLATE); “inactive; negative” (Test System: AMES SALMONELLA TYPHIMURIUM, Strain/Indicator: TA98, Metabolic Activation: NONE, Method: PREINCUBATION); “inactive; negative” under setting [1]; “inactive; negative” under setting [2]; “inactive; negative” (Test System: AMES SALMONELLA TYPHIMURIUM, Strain/Indicator: TA98, Metabolic Activation: RAT, LIVER, S-9, PCB, Method: PREINCUBATION); “inactive; negative” (Test System: AMES SALMONELLA TYPHIMURIUM, Strain/Indicator: TA98, Metabolic Activation: RAT, LIVER, S-9, PHENOBARBITAL AND BETA-NAPHTHOFLAVONE, Method: PREINCUBATION). In addition, the mutagenic call is “inactive; negative” (Test System: AMES SALMONELLA TYPHIMURIUM, Strain/Indicator: TA100, Metabolic Activation: HAMSTER, LIVER, S-9, AROCLOR 1254, Method: STANDARD PLATE); “inactive; negative” (Test System: AMES SALMONELLA TYPHIMURIUM, Strain/Indicator: TA100, Metabolic Activation: NONE, Method: PREINCUBATION); “inactive; negative” under setting [3]; “inactive; negative” under setting [4]; “inactive; negative” (Test System: AMES SALMONELLA TYPHIMURIUM, Strain/Indicator: TA100, Metabolic Activation: RAT, LIVER, S-9, PCB, Method: PREINCUBATION); “inactive; negative” (Test System: AMES SALMONELLA TYPHIMURIUM, Strain/Indicator: TA100, Metabolic Activation: RAT, LIVER, S-9, PHENOBARBITAL AND BETA-NAPHTHOFLAVONE, Method: PREINCUBATION). The mutagenic call was “inactive; negative” (Test System: AMES SALMONELLA TYPHIMURIUM, Strain/Indicator: TA102, Metabolic Activation: NONE, Method: PREINCUBATION); “inactive; negative” (Test System: AMES SALMONELLA TYPHIMURIUM, Strain/Indicator: TA102, Metabolic Activation: RAT, LIVER, S-9, SODIUM PHENOBARBITAL AND 5,6-BENZOFLAVONE, Method: PREINCUBATION); “inactive; negative” (Test System: AMES SALMONELLA TYPHIMURIUM, Strain/Indicator: TA104, Metabolic Activation: NONE, Method: PREINCUBATION); “inactive; negative” (Test System: AMES SALMONELLA TYPHIMURIUM, Strain/Indicator: TA104, Metabolic Activation: RAT, LIVER, S-9, SODIUM PHENOBARBITAL AND 5,6-BENZOFLAVONE, Method: PREINCUBATION); “inactive; negative” (Test System: AMES SALMONELLA TYPHIMURIUM, Strain/Indicator: TA1535, Metabolic Activation: HAMSTER, LIVER, S-9, AROCLOR 1254, Method: STANDARD PLATE); “inactive; negative” (Test System: AMES SALMONELLA TYPHIMURIUM, Strain/Indicator: TA1535, Metabolic Activation: NONE, Method: PREINCUBATION). For the same compound, the mutagenic call (Test System: AMES SALMONELLA TYPHIMURIUM, Strain/Indicator: TA1535, Metabolic Activation: NONE, Method: STANDARD PLATE) is “inactive; negative”; the mutagenic call (Test System: AMES SALMONELLA TYPHIMURIUM, Strain/Indicator: TA1535, Metabolic Activation: RAT, LIVER, S-9, AROCLOR 1254, Method: STANDARD PLATE) was “inactive; negative”; the mutagenic call (Test System: AMES SALMONELLA TYPHIMURIUM, Strain/Indicator: TA1535, Metabolic Activation: RAT, LIVER, S-9, PHENOBARBITAL AND BETA-NAPHTHOFLAVONE, Method: PREINCUBATION) was “inactive; negative”; the mutagenic call (Test System: AMES SALMONELLA TYPHIMURIUM, Strain/Indicator: TA1537, Metabolic Activation: HAMSTER, LIVER, S-9, AROCLOR 1254, Method: STANDARD PLATE) was “inactive; negative”; the mutagenic call (Test System: AMES SALMONELLA TYPHIMURIUM, Strain/Indicator: TA1537, Metabolic Activation: NONE, Method: PREINCUBATION) is “inactive; negative”; the mutagenic call (Test System: AMES SALMONELLA TYPHIMURIUM, Strain/Indicator: TA1537, Metabolic Activation: NONE, Method: STANDARD PLATE) is “inactive; negative”. In addition, the mutagenic call is “inactive; negative” (Test System: AMES SALMONELLA TYPHIMURIUM, Strain/Indicator: TA1537, Metabolic Activation: RAT, LIVER, S-9, AROCLOR 1254, Method: STANDARD PLATE); “inactive; negative” (Test System: AMES SALMONELLA TYPHIMURIUM, Strain/Indicator: TA1537, Metabolic Activation: RAT, LIVER, S-9, PHENOBARBITAL AND BETA-NAPHTHOFLAVONE, Method: PREINCUBATION); “inactive; negative” (Test System: AMES SALMONELLA TYPHIMURIUM, Strain/Indicator: TA1538, Metabolic Activation: HAMSTER, LIVER, S-9, AROCLOR 1254, Method: STANDARD PLATE); “inactive; negative” (Test System: AMES SALMONELLA TYPHIMURIUM, Strain/Indicator: TA1538, Metabolic Activation: NONE, Method: STANDARD PLATE); “inactive; negative” (Test System: AMES SALMONELLA TYPHIMURIUM, Strain/Indicator: TA1538, Metabolic Activation: RAT, LIVER, S-9, AROCLOR 1254, Method: STANDARD PLATE); “inactive; negative” (Test System: E. COLI, Strain/Indicator: WP2UVRA/PKM101, Metabolic Activation: NONE, Method: PREINCUBATION). Besides, the mutagenic call is “inactive; negative” (Test System: E. COLI, Strain/Indicator: WP2UVRA/PKM101, Metabolic Activation: RAT, LIVER, S-9, PHENOBARBITAL AND BETA-NAPHTHOFLAVONE, Method: PREINCUBATION); “inactive; negative” (Test System: E. COLI, Strain/Indicator: WP2UVRA/PKM101, Metabolic Activation: RAT, LIVER, S-9, SODIUM PHENOBARBITAL AND 5,6-BENZOFLAVONE, Method: PREINCUBATION); “inactive; negative” (Test System: E. COLI, Strain/Indicator: WP2UVRA, Metabolic Activation: NONE, Method: PREINCUBATION); “inactive; negative” (Test System: E. COLI, Strain/Indicator: WP2UVRA, Metabolic Activation: RAT, LIVER, S-9, PHENOBARBITAL AND BETA-NAPHTHOFLAVONE, Method: PREINCUBATION); “inactive; negative” (Test System: E. COLI, Strain/Indicator: WP2UVRA, Metabolic Activation: RAT, LIVER, S-9, SODIUM PHENOBARBITAL AND 5,6-BENZOFLAVONE, Method: PREINCUBATION); “inactive; negative. reevaluation of results: negative” (Test System: MOUSE LYMPHOMA, Strain/Indicator: L5178Y (TK+/TK-), Metabolic Activation: NONE, Method: SUSPENSION/PLATE). For the same compound, the mutagenic call (Test System: MOUSE LYMPHOMA, Strain/Indicator: L5178Y (TK+/TK-), Metabolic Activation: RAT, LIVER, S-9, AROCLOR 1254, Method: SUSPENSION/PLATE) is “inactive; negative. reevaluation of results: negative”.

As for `Cc1c(N=O)c(=O)n(-c2ccccc2)n1C`, the mutagenic call is “active; positive” (Test System: AMES SALMONELLA TYPHIMURIUM, Strain/Indicator: TA97, Metabolic Activation: NONE, Method: STANDARD PLATE); “active; positive” (Test System: AMES SALMONELLA TYPHIMURIUM, Strain/Indicator: TA97, Metabolic Activation: RAT, LIVER, S-9, AROCLOR 1254, Method: STANDARD PLATE); “active; positive” under setting [1]; “active; positive” under setting [2]; “active; positive” under setting [3]; “active; positive” under setting [4]. Moreover, the mutagenic call was “active; positive” (Test System: AMES SALMONELLA TYPHIMURIUM, Strain/Indicator: TA102, Metabolic Activation: NONE, Method: STANDARD PLATE); “active; positive” (Test System: AMES SALMONELLA TYPHIMURIUM, Strain/Indicator: TA102, Metabolic Activation: RAT, LIVER, S-9, AROCLOR 1254, Method: STANDARD PLATE); “active; positive” (Test System: AMES SALMONELLA TYPHIMURIUM, Strain/Indicator: TA104, Metabolic Activation: NONE, Method: STANDARD PLATE); “active; positive” (Test System: AMES SALMONELLA TYPHIMURIUM, Strain/Indicator: TA104, Metabolic Activation: RAT, LIVER, S-9, AROCLOR 1254, Method: STANDARD PLATE).

On to `C#CC(OC(=O)NC1CCCCC1)(c1ccccc1)c1ccccc1`, for which, under setting [3], the mutagenic call was “active; positive”.
